Laboratory results from patent publication US20260265238A1, “COMPOUNDS AND PHARMACEUTICAL COMPOSITIONS THAT DEGRADE SWI/SNF-RELATED MATRIX-ASSOCIATED ACTIN-DEPENDENT REGULATOR OF CHROMATIN SUBFAMILY A” (Plexium, Inc., priority 2023, published 2026).

Assays:
[1] = molecular target: T1, SMARCA2-HiBiT HeLa cells (protein which is expressed from the SMARCA2 gene) (Homo sapiens, UniProt P51531); assay: SMARCA2 degradation assay (HiBiT-fusion HeLa cell line, 24 h, luminescence); format: cell-based
T1 construct: protein which is expressed from the SMARCA2 and SMARCA4 genes; host or cells: HeLa (SMARCA2-HiBiT engineered line)
In short: (§1)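 SMARCA2- or SMARCA4-HiBiT HeLa cells seeded overnight at 37° C, then given compound as a 10-point dilution (typically 10 μM to 300 pM) for 24 h at 37° C. Protein level read by HiBiT lytic detection luminescence; DC50 from dose-response curves; degradation also scored at 1 μM.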

[2] = molecular target: T2, SMARCA4-HiBiT HeLa cells (protein which is expressed from the SMARCA4 gene) (Homo sapiens, UniProt P51532); assay: SMARCA4 degradation assay (HiBiT-fusion HeLa cell line, 24 h, luminescence); format: cell-based
T2 construct: protein which is expressed from the SMARCA2 and SMARCA4 genes; host or cells: HeLa (SMARCA4-HiBiT engineered line)
In short: as §1

T2 sequence (P51532 whole entry, the tested form may be a part): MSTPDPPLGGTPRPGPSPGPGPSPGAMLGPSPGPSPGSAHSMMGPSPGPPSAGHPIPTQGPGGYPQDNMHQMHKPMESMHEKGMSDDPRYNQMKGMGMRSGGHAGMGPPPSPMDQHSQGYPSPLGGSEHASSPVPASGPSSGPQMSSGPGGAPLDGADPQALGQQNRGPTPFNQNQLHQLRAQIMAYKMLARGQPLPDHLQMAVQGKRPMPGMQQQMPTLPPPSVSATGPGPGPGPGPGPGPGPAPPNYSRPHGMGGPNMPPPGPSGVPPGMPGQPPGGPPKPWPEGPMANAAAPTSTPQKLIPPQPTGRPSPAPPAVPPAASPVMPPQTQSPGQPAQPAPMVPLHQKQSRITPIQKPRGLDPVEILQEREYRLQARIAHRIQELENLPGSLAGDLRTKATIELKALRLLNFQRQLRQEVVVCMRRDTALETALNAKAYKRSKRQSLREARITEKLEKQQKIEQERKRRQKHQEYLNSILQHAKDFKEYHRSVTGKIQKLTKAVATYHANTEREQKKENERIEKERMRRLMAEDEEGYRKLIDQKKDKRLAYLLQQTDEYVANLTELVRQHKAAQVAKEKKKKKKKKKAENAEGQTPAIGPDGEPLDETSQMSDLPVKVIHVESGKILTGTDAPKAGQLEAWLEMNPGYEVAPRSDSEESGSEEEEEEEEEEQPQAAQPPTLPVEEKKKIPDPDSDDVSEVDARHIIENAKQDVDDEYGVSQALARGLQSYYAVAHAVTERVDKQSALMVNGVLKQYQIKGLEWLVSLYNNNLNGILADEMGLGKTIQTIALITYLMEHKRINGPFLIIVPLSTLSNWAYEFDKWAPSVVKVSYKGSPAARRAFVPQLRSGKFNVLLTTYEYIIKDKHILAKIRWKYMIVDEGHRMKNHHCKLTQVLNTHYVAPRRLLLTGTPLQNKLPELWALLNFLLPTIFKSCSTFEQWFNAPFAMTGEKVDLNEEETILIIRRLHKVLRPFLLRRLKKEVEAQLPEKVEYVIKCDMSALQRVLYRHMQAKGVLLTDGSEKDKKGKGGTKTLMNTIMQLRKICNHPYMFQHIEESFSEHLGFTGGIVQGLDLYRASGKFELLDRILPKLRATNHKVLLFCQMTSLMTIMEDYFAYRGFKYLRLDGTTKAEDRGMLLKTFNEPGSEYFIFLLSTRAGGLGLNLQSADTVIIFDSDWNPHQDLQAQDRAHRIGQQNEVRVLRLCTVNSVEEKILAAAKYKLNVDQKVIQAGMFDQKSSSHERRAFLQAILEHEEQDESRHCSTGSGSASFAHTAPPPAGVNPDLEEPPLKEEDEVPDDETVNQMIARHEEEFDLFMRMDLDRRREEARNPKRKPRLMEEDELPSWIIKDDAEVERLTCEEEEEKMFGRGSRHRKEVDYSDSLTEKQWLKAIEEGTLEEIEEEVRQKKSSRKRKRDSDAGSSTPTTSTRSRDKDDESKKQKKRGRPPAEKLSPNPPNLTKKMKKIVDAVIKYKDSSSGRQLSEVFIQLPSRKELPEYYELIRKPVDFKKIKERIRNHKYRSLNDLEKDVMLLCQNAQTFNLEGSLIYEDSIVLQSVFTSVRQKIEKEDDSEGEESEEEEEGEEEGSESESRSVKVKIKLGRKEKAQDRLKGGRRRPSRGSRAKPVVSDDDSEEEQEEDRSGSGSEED
T1 sequence (P51531 whole entry, the tested form may be a part): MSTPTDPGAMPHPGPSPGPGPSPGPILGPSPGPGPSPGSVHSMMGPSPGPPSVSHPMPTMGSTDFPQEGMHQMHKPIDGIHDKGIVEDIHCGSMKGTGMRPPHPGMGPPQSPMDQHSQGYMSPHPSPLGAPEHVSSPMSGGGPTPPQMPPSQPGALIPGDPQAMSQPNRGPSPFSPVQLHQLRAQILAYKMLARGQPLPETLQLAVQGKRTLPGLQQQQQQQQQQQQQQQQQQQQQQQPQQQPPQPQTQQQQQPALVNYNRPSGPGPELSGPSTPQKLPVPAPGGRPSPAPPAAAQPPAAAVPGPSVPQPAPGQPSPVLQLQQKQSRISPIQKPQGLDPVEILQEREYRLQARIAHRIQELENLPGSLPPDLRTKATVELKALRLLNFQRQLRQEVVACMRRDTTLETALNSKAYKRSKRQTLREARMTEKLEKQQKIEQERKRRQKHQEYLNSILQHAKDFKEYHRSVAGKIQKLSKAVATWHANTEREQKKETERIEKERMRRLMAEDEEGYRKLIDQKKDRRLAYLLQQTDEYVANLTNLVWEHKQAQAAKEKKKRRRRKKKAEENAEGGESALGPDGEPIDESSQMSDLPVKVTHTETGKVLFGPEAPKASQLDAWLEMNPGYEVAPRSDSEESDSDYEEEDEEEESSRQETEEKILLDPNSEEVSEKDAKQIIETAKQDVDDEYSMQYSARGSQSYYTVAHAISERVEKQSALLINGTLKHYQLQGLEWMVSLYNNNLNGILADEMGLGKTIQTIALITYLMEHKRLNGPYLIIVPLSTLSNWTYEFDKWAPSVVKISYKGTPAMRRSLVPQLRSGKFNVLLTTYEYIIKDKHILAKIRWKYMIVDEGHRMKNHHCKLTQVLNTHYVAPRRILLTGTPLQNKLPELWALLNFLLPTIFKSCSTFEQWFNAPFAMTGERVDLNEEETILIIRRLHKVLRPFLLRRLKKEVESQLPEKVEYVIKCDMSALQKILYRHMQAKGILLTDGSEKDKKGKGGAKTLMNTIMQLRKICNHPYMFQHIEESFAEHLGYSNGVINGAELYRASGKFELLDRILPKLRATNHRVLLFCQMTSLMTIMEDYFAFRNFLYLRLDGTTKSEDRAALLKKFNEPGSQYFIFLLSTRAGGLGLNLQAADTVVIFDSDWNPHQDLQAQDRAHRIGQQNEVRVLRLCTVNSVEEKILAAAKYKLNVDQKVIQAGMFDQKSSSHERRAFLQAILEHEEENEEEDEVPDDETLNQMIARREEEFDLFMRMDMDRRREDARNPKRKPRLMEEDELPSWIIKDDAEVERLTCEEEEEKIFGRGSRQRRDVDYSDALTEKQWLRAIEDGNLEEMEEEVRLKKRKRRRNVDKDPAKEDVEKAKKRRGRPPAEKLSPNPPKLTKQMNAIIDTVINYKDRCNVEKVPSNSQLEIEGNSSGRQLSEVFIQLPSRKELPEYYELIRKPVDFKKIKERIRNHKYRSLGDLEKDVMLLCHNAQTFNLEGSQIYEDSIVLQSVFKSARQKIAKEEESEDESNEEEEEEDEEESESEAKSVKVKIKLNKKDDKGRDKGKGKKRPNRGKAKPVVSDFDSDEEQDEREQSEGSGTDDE

SMILES	DC50 [1] [nM]	SMARCA2 % Degradation @ 1 μM ([1]; 1 μM)	DC50 [2] [nM]	inhibition at 1 µM ([2]; 1 μM) [%]	SMARCA2 % Degradation @ 1 μM ([1]; @ 1 μM)	inhibition at 1 µM ([2]; @ 1 μM) [%]
CN(C)CC#Cc1nccc(N2C3CC2CN(c2cc(-c4ccccc4O)nnc2N)C3)n1 [Compound P-206, o-[6-amino-5-(6-{2-[3-(dimethylamino)-1-propynyl]-4-pyrimidinyl}-3,6-diazabicyclo[3.1.1]hcpt-3-yl)-3-pyridazinyl]phenol]	< 50		50 to 500		+++ (+++=>70%)	> 70
C[C@@H]1CCN(c2cc(-c3ccccc3O)nnc2N)CCN1c1ccnc(/C=C/CN2CCOCC2)n1 [Compound P-167, o-(5-{(R)-5-methyl-4-[2-(3-morpholino-1-propenyl)-4-pyrimidinyl]-1,4-diazepan-1-y1}-6-amino-3-pyridazinyl)phenol]	< 50		< 50		++ (++=30-70%)	< 30
Nc1nnc(-c2ccccc2O)cc1N1CC[C@@H]2[C@H]1CN2c1ccnc(C#CCNC(=O)c2cc3ncccn3n2)n1 [Compound P-47, N-(3-(4-((1R,5R)-2-(3-amino-6-(2-hydroxyphenyl)pyridazin-4-yl)-2,6-diazabicyclo[3.2.0]heptan-6-yl)pyrimidin-2-yl)prop-2-yn-1-yl)pyrazolo[1,5-a]pyrimidine-2-carboxamide]	500 to 5000		500 to 5000		+ (+=<30%)	< 30
Nc1nnc(-c2ccccc2O)cc1OC1CC2CN(c3ccnc(C#CCn4ccnc4)n3)CC2C1 (stereo not shown) [Compound P-219, o-[6-amino-5-(3-{2-[3-(1-imidazolyl)-1-propynyl]-4-pyrimidinyl}-3-azabicyclo[3.3.0]oct-7-yloxy)-3-pyridazinyl]phenol]	50 to 500		50 to 500		+++ (+++=>70%)	> 70
CNCC#Cc1nccc(N2C3CCC2CN(c2cc(-c4ccccc4O)nnc2N)C3)n1 [Compound P-291, 0-[6-amino-5-(8-{2-[3-(methylamino)-1-propynyl]-4-pyrimidinyl}-3,8-diazabicyclo[3.2.1]oct-3-yl)-3-pyridazinyl]phenol]	50 to 500		50 to 500		++ (++=30-70%)	< 30
C[C@@H]1CCN(c2cc(-c3ccccc3O)nnc2N)CCN1c1ccnc(C#CCN2CC3CCC2CO3)n1 (stereo partly drawn) [Compound P-178, o-{5-[(R)-5-methyl-4-(2-{3-(2-oxa-5-azabicyclo[2.2.2]oct-5-yl)-1-propynyl}-4-pyrimidinyl)-1,4-diazepan-1-yl]-6-amino-3-pyridazinyl}phenol]	50 to 500		50 to 500		+++ (+++=>70%)	30 to 70
C[C@@H]1CCN(c2cc(-c3ccccc3O)nnc2N)CCN1c1ccnc(C#CCN2CC3CCC(C2)O3)n1 [Compound P-183, o-{5-[(R)-5-methyl-4-(2-{3-(8-oxa-3-azabicyclo[3.2.1]oct-3-yl)-1-propynyl}-4-pyrimidinyl)-1,4-diazepan-1-yl]-6-amino-3-pyridazinyl}phenol]	50 to 500		50 to 500		+++ (+++=>70%)	30 to 70
Nc1nnc(-c2ccccc2O)cc1N1C[C@@H]2C[C@H]1CN2c1ccnc(C#CCNC(=O)c2cc3ncccn3n2)n1 [Compound P-30, N-(3-(4-((1S,4S)-5-(3-amino-6-(2-hydroxyphenyl)pyridazin-4-yl)-2,5-diazabicyclo[2.2.1]heptan-2-yl)pyrimidin-2-yl)prop-2-yn-1-yl)pyrazolo[1,5-a]pyrimidine-2-carboxamide]	500 to 5000		500 to 5000		++ (++=30-70%)	30 to 70
Nc1nnc(-c2ccccc2O)cc1N1C2CC1CN(c1ccnc(C#CCNC(=O)c3cc4ncccn4n3)n1)C2 [Compound P-80, N-(3-(4-(6-(3-amino-6-(2-hydroxyphenyl)pyridazin-4-yl)-3,6-diazabicyclo[3.1.1]heptan-3-yl)pyrimidin-2-yl)prop-2-yn-1-yl)pyrazolo[1,5-a]pyrimidine-2-carboxamide]	500 to 5000		> 5000		+ (+=<30%)	< 30

Results, then the compound that gave them:

DC50 [1] [nM]	SMARCA2 % Degradation @ 1 μM ([1]; 1 μM)	DC50 [2] [nM]	inhibition at 1 µM ([2]; 1 μM) [%]	SMARCA2 % Degradation @ 1 μM ([1]; @ 1 μM)	inhibition at 1 µM ([2]; @ 1 μM) [%]	SMILES
50 to 500	++ (++=30-70%)	50 to 500	30 to 70			C[C@H]1CCN(c2cc(-c3ccccc3O)nnc2N)CCN1c1ccc(C#N)c(C#CCN(C)CC(F)(F)F)n1 [Compound P-415, 2-{3-[N-methyl(2,2,2-trifluoroethyl)amino]-1-propynyl}-6-{(S)-4-[3-amino-6-(o-hydroxyphenyl)-4-pyridazinyl]-7-methyl-1,4-diazepan-1-yl}nicotinonitrile]
50 to 500		50 to 500		+++ (+++=>70%)	30 to 70	CC(C)(C)OC(=O)N1CC(C#Cc2nccc(N3CCCN(c4cc(-c5ccccc5O)nnc4N)CC3)n2)C1 [Compound P-371, tert-butyl 3-[2-(4-{4-[3-amino-6-(o-hydroxyphenyl)-4-pyridaziny1]-1,4-diazepan-1-yl}-2-pyrimidinyl)ethynyl]-1-azetidinecarboxylate]
< 50		< 50		++ (++=30-70%)	30 to 70	C[C@@H]1CCN(c2cc(-c3ccccc3O)nnc2N)CCN1c1ccnc(C#CC2CCCCN2C)n1 (stereo partly drawn) [Compound P-231, o-{5-[(R)-5-methyl-4-{2-[2-(1-methyl-2-piperidyl)ethynyl]-4-pyrimidinyl}-1,4-diazepan-1-yl]-6-amino-3-pyridaziny1} phenol]
50 to 500		50 to 500		+++ (+++=>70%)	> 70	Nc1nnc(-c2ccccc2O)cc1N1CCCN(c2ccnc(C#CC34CCCN3CCC4)n2)CC1 [Compound P-355, 0-[6-amino-5-(4-{2-[2-(hexahydro-1H-pyrrolizin-7a-yl)ethynyl]-4-pyrimidinyl}-1,4-diazepan-1-yl)-3-pyridazinyl]phenol]
50 to 500		50 to 500		+++ (+++=>70%)	> 70	CC1CN(c2ccnc(C#CCNC(=O)c3cc4ncccn4n3)n2)CCN(c2cc(-c3ccccc3O)nnc2N)C1 (stereo not shown) [Compound P-27, N-(3-(4-(4-(3-amino-6-(2-hydroxyphenyl)pyridazin-4-yl)-6-methyl-1,4-diazepan-1-yl)pyrimidin-2-yl)prop-2-yn-1-yl)pyrazolo[1,5-a]pyrimidine-2-carboxamide]
50 to 500	++ (++=30-70%)	50 to 500				C[C@@H]1CCN(c2cc(-c3ccccc3O)nnc2N)CCN1c1ccnc(C#CC2CC2)c1 [Compound P-391, 0-(5-{(R)-4-[2-(2-cyclopropylethynyl)-4-pyridyl]-5-methyl-1,4-diazepan-1-yl}-6-amino-3-pyridazinyl)phenol]
50 to 500		50 to 500		++ (++=30-70%)	< 30	CC(C#Cc1ncc(F)c(N2CCN(c3cc(-c4ccccc4O)nnc3N)CC[C@H]2C)n1)N(C)C (stereo partly shown) [Compound P-208]
50 to 500		< 50		++ (++=30-70%)	30 to 70	Cc1c(C(=O)NCC#Cc2nccc(N3CCN(c4cc(-c5ccccc5O)nnc4N)CC3)n2)nn(C)c1C [Compound P-8, N-[3-(4-{4-[3-amino-6-(2-hydroxyphenyl)pyridazin-4-yl]piperazin-1-yl}pyrimidin-2-yl)prop-2-yn-1-yl]-1,4,5-trimethyl-1H-pyrazole-3-carboxamide]
50 to 500		50 to 500		+++ (+++=>70%)	> 70	CC1CCN(c2cc(-c3ccccc3O)nnc2N)CCN1c1ccnc(C#CCNC(=O)c2cc3ncccn3n2)n1 (stereo not shown) [Compound P-46, N-(3-(4-(4-(3-amino-6-(2-hydroxyphenyl)pyridazin-4-yl)-7-methyl-1,4-diazepan-1-yl)pyrimidin-2-yl)prop-2-yn-1-yl)pyrazolo[1,5-a]pyrimidine-2-carboxamide]
50 to 500		50 to 500		++ (++=30-70%)	30 to 70	C[C@H]1CN(c2ccnc(C#CCNC(=O)c3cc4ncccn4n3)n2)CCN1c1cc(-c2ccccc2O)nnc1N [Compound P-48, (S)-N-(3-(4-(4-(3-amino-6-(2-hydroxyphenyl)pyridazin-4-yl)-3-methylpiperazin-1-yl)pyrimidin-2-yl)prop-2-yn-1-yl)pyrazolo[1,5-a]pyrimidine-2-carboxamide]
500 to 5000		> 5000				CC(C)(C)OC(=O)NCC#Cc1cccc(N2CCCN(c3cc(-c4ccccc4O)nnc3N)CC2)n1 [Compound P-432, 3-(6-{4-[3-amino-6-(o-hydroxyphenyl)-4-pyridaziny1]-1,4-diazepan-1-yl}-2-pyridyl)-2-propynyl 2-methyl-2-propanecarbamate]
50 to 500		500 to 5000		++ (++=30-70%)	< 30	C[C@H]1COCCN1CC#Cc1nccc(N2CCCN(c3cc(-c4ccccc4O)nnc3N)CC2)n1 [Compound P-316, 0-{5-[4-(2-{3-[(S)-3-methyl-4-morpholinyl]-1-propynyl}-4-pyrimidinyl)-1,4-diazepan-1-yl]-6-amino-3-pyridazinyl}phenol]
50 to 500		50 to 500		+++ (+++=>70%)	30 to 70	Nc1nnc(-c2ccccc2O)cc1N1CCCN(c2ccnc(C#CCNC3CCOCC3)n2)CC1 [Compound P-300, 0-[6-amino-5-(4-{2-[3-(tetrahydro-2H-pyran-4-ylamino)-1-propynyl]-4-pyrimidinyl}-1,4-diazepan-1-yl)-3-pyridazinyl]phenol]
